In patent US5506237A, “Bicyclic nitrogen compounds” (Adir et Compagnie, priority 1993, dated 1996):

What was measured:
[1] = biological target: T1, prolyl-endopeptidase in rat cerebral cortex (Rattus norvegicus, UniProt O70196); experiment: In vivo inhibition of prolyl-endopeptidase in rat cerebral cortex after IP administration; conditions: 1 mg/kg IP, 30 minutes before preparation of the tissue extract
T1 sequence (O70196 1-710): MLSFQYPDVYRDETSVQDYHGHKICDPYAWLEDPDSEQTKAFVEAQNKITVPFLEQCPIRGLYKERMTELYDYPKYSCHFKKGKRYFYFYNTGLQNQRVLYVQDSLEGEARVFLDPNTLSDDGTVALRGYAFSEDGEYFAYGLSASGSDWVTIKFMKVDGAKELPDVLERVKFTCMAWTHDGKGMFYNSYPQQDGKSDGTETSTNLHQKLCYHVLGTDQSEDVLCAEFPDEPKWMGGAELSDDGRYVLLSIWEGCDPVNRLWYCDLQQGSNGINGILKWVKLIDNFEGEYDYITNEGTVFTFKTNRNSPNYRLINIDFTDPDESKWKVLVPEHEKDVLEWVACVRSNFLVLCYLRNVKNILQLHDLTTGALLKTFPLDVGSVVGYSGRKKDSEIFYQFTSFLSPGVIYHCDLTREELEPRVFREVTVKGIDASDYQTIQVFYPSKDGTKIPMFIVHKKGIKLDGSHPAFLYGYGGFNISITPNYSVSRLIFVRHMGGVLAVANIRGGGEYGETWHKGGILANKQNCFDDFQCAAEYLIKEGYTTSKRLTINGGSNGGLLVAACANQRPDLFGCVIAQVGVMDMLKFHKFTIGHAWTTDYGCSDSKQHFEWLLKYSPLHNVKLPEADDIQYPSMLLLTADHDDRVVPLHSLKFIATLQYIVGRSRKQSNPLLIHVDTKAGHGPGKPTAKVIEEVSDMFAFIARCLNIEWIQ

Prolyl-endopeptidase = experiment: biochemical
[2] = biological target: T1, prolyl-endopeptidase in rat cerebral cortex; experiment: Duration of action with respect to in vivo inhibition of prolyl-endopeptidase in rat cerebral cortex; conditions: IP
[3] = biological target: T1, prolyl-endopeptidase in rat cerebral cortex; experiment: Oral bioavailability estimated from inhibiting effect after oral versus IP administration; format: in vivo; conditions: inhibiting effect (%) after oral divided by that after IP administration, 30 or 60 minutes
Method: The oral bioavailability index (OBI) was determined by dividing the inhibiting effect (%) measured after oral administration by that measured after IP administration.

[4] = biological target: T1, prolyl-endopeptidase in rat cerebral cortex; experiment: In vitro inhibition of prolyl-endopeptidase in rat cerebral cortex extract (substrate TRH-pNitroaniline); format: biochemical; conditions: 37° C.

Prolyl-endopeptidase, sequence (P27028 21-705): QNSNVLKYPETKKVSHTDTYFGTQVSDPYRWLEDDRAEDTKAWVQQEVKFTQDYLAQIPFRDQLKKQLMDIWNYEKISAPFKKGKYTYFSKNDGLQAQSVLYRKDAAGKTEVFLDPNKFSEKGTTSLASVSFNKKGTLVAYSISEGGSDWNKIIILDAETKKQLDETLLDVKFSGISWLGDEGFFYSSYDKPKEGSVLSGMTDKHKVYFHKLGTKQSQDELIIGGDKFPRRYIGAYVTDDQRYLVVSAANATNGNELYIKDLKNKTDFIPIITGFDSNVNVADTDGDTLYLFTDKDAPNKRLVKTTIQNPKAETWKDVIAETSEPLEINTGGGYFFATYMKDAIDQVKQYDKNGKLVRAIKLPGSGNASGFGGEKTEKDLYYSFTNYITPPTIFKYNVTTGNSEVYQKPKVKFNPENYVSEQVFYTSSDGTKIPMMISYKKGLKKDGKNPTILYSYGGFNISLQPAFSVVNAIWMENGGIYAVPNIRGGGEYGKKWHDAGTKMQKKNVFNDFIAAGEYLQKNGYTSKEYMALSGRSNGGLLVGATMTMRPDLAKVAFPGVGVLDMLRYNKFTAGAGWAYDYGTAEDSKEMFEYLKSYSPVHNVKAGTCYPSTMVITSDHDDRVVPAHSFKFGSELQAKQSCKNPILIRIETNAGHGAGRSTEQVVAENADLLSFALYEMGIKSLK

O=C([C@@H]1C[C@@H]2CCCC[C@@H]2N1C(=O)C1CC1Cc1ccccc1)N1CCCC1 (single isomer, unassigned) [Example 14]
inhibition at 1 mg/kg [1]: 41%

O=C([C@@H]1C[C@@H]2CCCC[C@@H]2N1C(=O)[C@@H]1C[C@H]1c1ccc(F)cc1)N1CCCC1 [Example 1]
IC50 (Prolyl-endopeptidase): 14 nM
inhibition at 1 mg/kg [1]: 54%
t1/2 (time for which the inhibiting effect is equal to 50 % of the maximum effect measured at 30 minutes) ([2]; 1 mg/kg): 7 h
OBI (oral bioavailability index) ([3]; 1 mg/kg): 0.90

O=C([C@@H]1C2CCC(CC2)N1C(=O)[C@@H]1C[C@H]1c1ccc(F)cc1)N1CCCC1 [Example 2, (3S)-2-{(1R,2R)-[2-(4-Fluorophenyl)-1-cyclopropyl]carbonyl}-3-[(pyrrolidin-1-yl)carbonyl]-2-azabicyclo[2.2.2]octane]
IC50 (Prolyl-endopeptidase): 40 nM
inhibition at 1 mg/kg [1]: 42%
t1/2 (time for which the inhibiting effect is equal to 50 % of the maximum effect measured at 30 minutes) ([2]; 1 mg/kg): 7 h

O=C([C@@H]1C[C@@H]2CCCC[C@@H]2N1C(=O)[C@@H]1C[C@H]1c1cccs1)N1CCCC1 [Example 3, (2S,3aS,7aS)-1-{(1R,2R)-[2-(2-Thienyl)-1-cyclopropyl]carbonyl}-2-[(pyrrolidin-1-yl)carbonyl]perhydroindole]
IC50 [4]: 1.4 nM
IC50 (Prolyl-endopeptidase): 14 nM
inhibition at 1 mg/kg [1]: 59%

O=C([C@@H]1C[C@@H]2CCCC[C@@H]2N1C(=O)[C@@H]1C[C@H]1c1cccc(C(F)(F)F)c1)N1CCCC1 [Example 5, (2S,3aS,7aS)-1-{(1R,2R)-[2-(3-Trifluoromethylphenyl)-1cyclopropyl]carbonyl}-2-[(pyrrolidin-1-yl)carbonyl]perhydroindole]
IC50 [4]: 1 nM
inhibition at 1 mg/kg [1]: 58%

O=C([C@@H]1C2CCC(CC2)N1C(=O)[C@@H]1C[C@H]1c1cccc(C(F)(F)F)c1)N1CCCC1 [Example 6, (3S)-2-{(1R,2R)-[2-(3-Trifluoromethylphenyl)-1-cyclopropyl]carbonyl}-3-[(pyrrolidin-1-yl)carbonyl]-2-azabicyclo[2.2.2]octane]
IC50 (Prolyl-endopeptidase): 3 nM
inhibition at 1 mg/kg [1]: 49%

O=C[C@@H]1CCCN1C(=O)CCC(=O)NCc1ccc(Cl)cc1 [ONO, (S)-1-[N-4-chlorobenzylsuccinamoyl] pyrrolidine-2-carbaldehyde, reference compound]
t1/2 (time for which the inhibiting effect is equal to 50 % of the maximum effect measured at 30 minutes) ([2]; 30 mg/kg): 1 h

O=C([C@@H]1CSCN1C(=O)CCCc1ccccc1)N1CCCC1 [Zeria, N-(4-phenylbutanoyl)-L-thiaprolylpyrrolidineimide, reference compound]
t1/2 (time for which the inhibiting effect is equal to 50 % of the maximum effect measured at 30 minutes) ([2]; 30 mg/kg): 1 h
OBI (oral bioavailability index) ([3]; 30 mg/kg): 0.30
